Data reported in ChEMBL document CHEMBL1151141, “Antineoplastic agents, 162. Zephyranthes candida” (1990).
In brackets after ≈: the same amount, converted by molar mass.

These molecules were tested on P388 (assay: Cytotoxicity against mouse P388 cells). Settings: read-out: ED50 (the source's name).
Type: functional

SMILES	EC50
O=C1N[C@H]2[C@H](O)[C@H](O)[C@@H](O)C[C@H]2c2cc3c(c(O)c21)OCO3	24 ng/mL (≈ 0.0776 µM)
O=C1N[C@H]2[C@H](O)[C@H](O)[C@@H](O)C[C@@H]2c2cc3c(c(O)c21)OCO3	3.2 ng/mL (≈ 0.0103 µM)
CC(=O)Oc1c2c(cc3c1C(=O)N[C@H]1[C@H](OC(C)=O)[C@H](OC(C)=O)[C@@H](OC(C)=O)C[C@H]31)OCO2	3.2 ng/mL (≈ 0.0067 µM)
